Experimental data reported in ChEMBL document CHEMBL5291721, “A preclinical secondary pharmacology resource illuminates target-adverse drug reaction associations of marketed drugs” (Nat Commun, 2023).

Key:
[1] = target: T1, 5-hydroxytryptamine receptor 1A (Homo sapiens, UniProt P08908)
T1 sequence (P08908 whole entry): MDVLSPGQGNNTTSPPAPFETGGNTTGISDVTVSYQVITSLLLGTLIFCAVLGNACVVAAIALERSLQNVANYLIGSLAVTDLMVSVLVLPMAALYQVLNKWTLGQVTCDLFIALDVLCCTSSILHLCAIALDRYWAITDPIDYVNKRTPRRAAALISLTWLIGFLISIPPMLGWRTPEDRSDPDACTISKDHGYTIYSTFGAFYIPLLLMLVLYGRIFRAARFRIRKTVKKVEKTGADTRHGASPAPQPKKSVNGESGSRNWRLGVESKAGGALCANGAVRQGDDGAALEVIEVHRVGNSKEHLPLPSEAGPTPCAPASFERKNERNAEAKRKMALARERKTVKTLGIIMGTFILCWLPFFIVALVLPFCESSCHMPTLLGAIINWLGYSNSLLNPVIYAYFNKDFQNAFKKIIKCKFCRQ

[2] = target: T2, Muscarinic acetylcholine receptor M2 (Homo sapiens, UniProt P08172)
T2 sequence (P08172 whole entry): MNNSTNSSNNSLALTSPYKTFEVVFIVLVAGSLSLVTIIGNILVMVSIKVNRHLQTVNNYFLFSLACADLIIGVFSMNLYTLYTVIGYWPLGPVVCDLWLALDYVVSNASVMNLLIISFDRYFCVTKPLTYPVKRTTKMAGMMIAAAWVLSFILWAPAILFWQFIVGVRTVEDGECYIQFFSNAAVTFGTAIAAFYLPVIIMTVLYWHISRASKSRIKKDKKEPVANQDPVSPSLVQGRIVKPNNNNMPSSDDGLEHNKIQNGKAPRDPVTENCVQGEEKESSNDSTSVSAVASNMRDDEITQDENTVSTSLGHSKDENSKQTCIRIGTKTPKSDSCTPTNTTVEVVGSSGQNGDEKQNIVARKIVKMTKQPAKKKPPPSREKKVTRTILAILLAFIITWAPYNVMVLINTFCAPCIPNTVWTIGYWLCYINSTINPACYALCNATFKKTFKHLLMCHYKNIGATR

[3] = target: T3, Alpha-1A adrenergic receptor (Homo sapiens, UniProt P35348); type: functional, cell-based
T3 sequence (P35348 whole entry): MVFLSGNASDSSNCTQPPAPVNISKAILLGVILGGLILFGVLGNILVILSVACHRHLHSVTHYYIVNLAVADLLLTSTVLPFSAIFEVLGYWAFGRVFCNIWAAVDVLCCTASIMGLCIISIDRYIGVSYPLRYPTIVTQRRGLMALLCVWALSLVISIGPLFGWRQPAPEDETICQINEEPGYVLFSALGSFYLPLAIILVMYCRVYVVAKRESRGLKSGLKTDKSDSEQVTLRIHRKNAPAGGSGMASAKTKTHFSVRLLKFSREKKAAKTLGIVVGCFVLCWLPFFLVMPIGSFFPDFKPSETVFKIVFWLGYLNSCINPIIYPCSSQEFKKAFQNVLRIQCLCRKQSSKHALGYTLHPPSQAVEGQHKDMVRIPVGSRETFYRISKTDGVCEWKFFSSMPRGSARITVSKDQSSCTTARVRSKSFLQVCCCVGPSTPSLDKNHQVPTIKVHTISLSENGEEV

Histamine H3 receptor = Histamine H3 receptor (Homo sapiens, UniProt Q9Y5N1)
Chain of Histamine H3 receptor (Q9Y5N1 whole entry): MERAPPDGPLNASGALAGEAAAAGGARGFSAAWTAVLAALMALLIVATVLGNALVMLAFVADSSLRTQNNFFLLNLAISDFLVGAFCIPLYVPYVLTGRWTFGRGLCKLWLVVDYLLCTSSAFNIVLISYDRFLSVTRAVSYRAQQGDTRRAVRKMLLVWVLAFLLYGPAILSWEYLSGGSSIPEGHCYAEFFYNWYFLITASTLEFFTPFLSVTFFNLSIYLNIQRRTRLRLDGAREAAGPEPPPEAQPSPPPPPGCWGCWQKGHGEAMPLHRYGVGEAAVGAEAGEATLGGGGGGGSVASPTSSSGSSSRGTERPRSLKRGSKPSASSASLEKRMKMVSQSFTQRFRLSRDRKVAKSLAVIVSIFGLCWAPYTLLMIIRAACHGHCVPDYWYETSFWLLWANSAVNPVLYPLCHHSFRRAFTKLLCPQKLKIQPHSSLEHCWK

[4] = target: Sodium-dependent serotonin transporter (Homo sapiens, UniProt P31645)
Chain of Sodium-dependent serotonin transporter (P31645 whole entry): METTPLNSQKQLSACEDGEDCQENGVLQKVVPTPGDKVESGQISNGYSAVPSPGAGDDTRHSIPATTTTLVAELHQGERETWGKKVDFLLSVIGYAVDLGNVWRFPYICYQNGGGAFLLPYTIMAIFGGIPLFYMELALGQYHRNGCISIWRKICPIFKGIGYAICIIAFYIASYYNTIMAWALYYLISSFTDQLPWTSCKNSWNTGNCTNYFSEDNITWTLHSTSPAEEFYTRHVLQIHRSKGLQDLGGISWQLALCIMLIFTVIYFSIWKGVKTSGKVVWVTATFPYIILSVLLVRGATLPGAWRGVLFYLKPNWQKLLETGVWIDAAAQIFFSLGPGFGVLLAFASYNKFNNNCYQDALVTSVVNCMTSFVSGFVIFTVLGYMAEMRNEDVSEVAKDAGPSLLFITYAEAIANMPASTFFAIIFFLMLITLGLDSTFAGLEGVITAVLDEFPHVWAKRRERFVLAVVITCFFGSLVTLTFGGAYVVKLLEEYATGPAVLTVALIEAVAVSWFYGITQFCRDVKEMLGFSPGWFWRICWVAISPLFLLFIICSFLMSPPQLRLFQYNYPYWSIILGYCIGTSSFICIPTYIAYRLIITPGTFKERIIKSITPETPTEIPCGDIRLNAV

Adenosine receptor A3 = target: T4, Adenosine receptor A3 (Homo sapiens, UniProt P0DMS8)
T4 sequence (P0DMS8 whole entry): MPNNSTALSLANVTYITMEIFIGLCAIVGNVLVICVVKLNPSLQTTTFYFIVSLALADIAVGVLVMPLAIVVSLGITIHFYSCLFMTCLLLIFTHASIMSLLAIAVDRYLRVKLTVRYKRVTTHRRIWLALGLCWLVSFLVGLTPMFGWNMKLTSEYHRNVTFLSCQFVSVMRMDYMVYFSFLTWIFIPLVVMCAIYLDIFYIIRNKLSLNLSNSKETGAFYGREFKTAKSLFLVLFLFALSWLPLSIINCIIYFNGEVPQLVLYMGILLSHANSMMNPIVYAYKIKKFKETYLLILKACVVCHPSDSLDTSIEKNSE

[5] = target: T5, Cholecystokinin receptor type A (Homo sapiens, UniProt P32238)
T5 sequence (P32238 whole entry): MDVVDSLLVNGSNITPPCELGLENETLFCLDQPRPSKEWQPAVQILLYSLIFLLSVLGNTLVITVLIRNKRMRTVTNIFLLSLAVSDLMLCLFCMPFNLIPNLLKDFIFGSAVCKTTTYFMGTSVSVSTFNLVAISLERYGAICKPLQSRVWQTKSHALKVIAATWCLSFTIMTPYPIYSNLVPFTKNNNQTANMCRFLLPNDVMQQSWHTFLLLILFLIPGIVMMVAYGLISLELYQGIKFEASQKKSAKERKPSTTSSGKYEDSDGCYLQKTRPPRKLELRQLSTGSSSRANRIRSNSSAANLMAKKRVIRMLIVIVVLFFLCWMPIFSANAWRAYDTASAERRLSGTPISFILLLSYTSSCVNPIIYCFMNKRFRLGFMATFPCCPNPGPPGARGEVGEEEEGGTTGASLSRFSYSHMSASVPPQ

[6] = target: Beta-2 adrenergic receptor (Homo sapiens, UniProt P07550)
Chain of Beta-2 adrenergic receptor (P07550 whole entry): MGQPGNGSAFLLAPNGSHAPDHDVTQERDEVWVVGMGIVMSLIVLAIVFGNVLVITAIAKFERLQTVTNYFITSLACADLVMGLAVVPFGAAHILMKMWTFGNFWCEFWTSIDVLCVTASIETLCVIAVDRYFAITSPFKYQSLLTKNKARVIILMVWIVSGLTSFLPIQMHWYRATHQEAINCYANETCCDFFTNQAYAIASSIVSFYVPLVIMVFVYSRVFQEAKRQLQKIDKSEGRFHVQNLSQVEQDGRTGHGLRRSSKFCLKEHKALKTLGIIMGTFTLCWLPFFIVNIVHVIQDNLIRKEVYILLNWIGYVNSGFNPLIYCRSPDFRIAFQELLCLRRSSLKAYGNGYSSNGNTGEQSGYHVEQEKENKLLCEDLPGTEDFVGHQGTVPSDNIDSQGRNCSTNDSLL

Motilin receptor = Motilin receptor (Homo sapiens, UniProt O43193)
Chain of Motilin receptor (O43193 whole entry): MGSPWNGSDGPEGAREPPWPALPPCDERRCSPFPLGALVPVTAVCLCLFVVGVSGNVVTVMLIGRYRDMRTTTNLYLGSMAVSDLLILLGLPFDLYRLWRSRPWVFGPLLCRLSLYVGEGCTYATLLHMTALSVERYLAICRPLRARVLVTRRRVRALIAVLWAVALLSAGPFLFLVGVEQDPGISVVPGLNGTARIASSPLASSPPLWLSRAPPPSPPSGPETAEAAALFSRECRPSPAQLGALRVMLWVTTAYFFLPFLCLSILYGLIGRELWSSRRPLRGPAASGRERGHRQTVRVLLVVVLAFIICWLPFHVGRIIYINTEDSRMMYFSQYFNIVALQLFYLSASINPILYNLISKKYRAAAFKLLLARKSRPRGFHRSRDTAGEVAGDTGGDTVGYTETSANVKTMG

[7] = target: 5-hydroxytryptamine receptor 2B (Homo sapiens, UniProt P41595); type: functional, cell-based
Chain of 5-hydroxytryptamine receptor 2B (P41595 whole entry): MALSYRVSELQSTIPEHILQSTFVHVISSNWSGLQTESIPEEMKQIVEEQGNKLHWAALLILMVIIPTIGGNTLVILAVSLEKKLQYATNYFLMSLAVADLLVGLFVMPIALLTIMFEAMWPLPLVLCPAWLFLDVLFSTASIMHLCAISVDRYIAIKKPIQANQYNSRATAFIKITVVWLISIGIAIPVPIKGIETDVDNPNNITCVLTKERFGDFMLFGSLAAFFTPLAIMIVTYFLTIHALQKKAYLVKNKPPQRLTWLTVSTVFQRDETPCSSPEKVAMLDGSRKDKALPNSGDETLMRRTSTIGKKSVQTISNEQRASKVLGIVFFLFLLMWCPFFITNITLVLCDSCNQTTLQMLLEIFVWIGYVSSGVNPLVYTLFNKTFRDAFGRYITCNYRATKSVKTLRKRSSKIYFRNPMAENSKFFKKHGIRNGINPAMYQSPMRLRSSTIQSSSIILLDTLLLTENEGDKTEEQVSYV

[8] = target: T2, Muscarinic acetylcholine receptor M2; type: functional, cell-based
[9] = target: T1, 5-hydroxytryptamine receptor 1A; type: functional, cell-based
Note: assay procedure not described here.

SMILES	AC50 [1]	AC50 [2]	AC50 [3]	AC50 (Histamine H3 receptor)	AC50 [4]	AC50 (Adenosine receptor A3)	AC50 [5]	AC50 [6]	AC50 (Motilin receptor)	AC50 [7]	AC50 [8]	AC50 [9]
O=C1c2c(O)c(=O)ccn2N([C@@H]2c3ccccc3SCc3c2ccc(F)c3F)[C@@H]2COCCN12 [BALOXAVIR]	> 30 µM	> 30 µM	> 30 µM	> 30 µM	> 30 µM	> 30 µM	–	–	–	–	–	–
C(=N\NC1=NCCN1)/c1c2ccccc2c(/C=N/NC2=NCCN2)c2ccccc12 [BISANTRENE]	1.65 µM	2.74 µM	1.47 µM	> 30 µM	2.25 µM	2.01 µM	–	–	–	–	–	–
COc1cc(Nc2c(C#N)cnc3cc(OCCCN4CCN(C)CC4)c(OC)cc23)c(Cl)cc1Cl [BOSUTINIB]	14.2 µM	4.94 µM	–	–	3.21 µM	–	> 30 µM	> 10 µM	> 10 µM	–	–	–
CCO/N=C(\C(=O)N[C@@H]1C(=O)N2C(C(=O)[O-])=C(Sc3nc(-c4cc[n+](C)cc4)cs3)CS[C@H]12)c1nsc(N)n1 [CEFTAROLINE]	> 30 µM	> 30 µM	> 30 µM	> 30 µM	> 30 µM	> 30 µM	–	–	–	–	–	–
C[N+](C)(C)CCCCCCCCCC[N+](C)(C)C [DECAMETHONIUM]	> 30 µM	> 30 µM	> 30 µM	> 30 µM	> 30 µM	> 30 µM	–	–	–	–	–	–
O=C1c2ccccc2C(=O)C1C(=O)C(c1ccccc1)c1ccccc1 [DIPHENADIONE]	> 30 µM	> 30 µM	> 3 µM	> 30 µM	> 30 µM	0.716 µM	–	–	–	–	–	–
CN(CCOc1ccc(NS(C)(=O)=O)cc1)CCc1ccc(NS(C)(=O)=O)cc1 [DOFETILIDE]	> 30 µM	6.73 µM	> 30 µM	> 30 µM	> 30 µM	> 30 µM	> 30 µM	> 10 µM	> 10 µM	> 30 µM	> 30 µM	> 30 µM
COc1cc2c(cc1OC)C(=O)C(CC1CCN(Cc3ccccc3)CC1)C2 (stereo not drawn) [DONEPEZIL]	–	–	–	5.2 µM	> 30 µM	> 30 µM	> 30 µM	> 10 µM	> 10 µM	–	–	–
CCOC(=O)c1ccc(O)cc1 [ETHYLPARABEN]	> 30 µM	> 30 µM	> 30 µM	> 30 µM	> 30 µM	> 30 µM	–	–	–	–	–	–
O=C1[C@H](CC[C@H](O)c2ccc(F)cc2)[C@@H](c2ccc(O)cc2)N1c1ccc(F)cc1 [EZETIMIBE]	> 30 µM	> 30 µM	–	> 30 µM	> 30 µM	6.34 µM	–	–	–	–	–	–
O=C(COc1ccc(Cl)cc1)N1CCN(Cc2ccc3c(c2)OCO3)CC1 [FIPEXIDE]	> 30 µM	> 30 µM	13.3 µM	> 30 µM	29.2 µM	> 30 µM	–	–	–	–	–	–
CCC(=O)c1c(O)cc(O)cc1O [FLOPROPIONE]	> 30 µM	> 30 µM	> 30 µM	> 30 µM	> 30 µM	> 30 µM	–	–	–	–	–	–
CC(=O)Oc1c(C)cc(OCC(O)CNC(C)C)c(C)c1C (stereo not drawn) [METIPRANOLOL]	> 30 µM	> 30 µM	> 30 µM	> 30 µM	> 30 µM	> 30 µM	–	–	–	–	–	–
OCCN1CCN(CCCN2c3ccccc3C=Cc3ccccc32)CC1 [OPIPRAMOL]	9.25 µM	9.58 µM	1.07 µM	19 µM	11.7 µM	–	> 30 µM	–	> 30 µM	> 30 µM	> 30 µM	> 30 µM
CC(N/C(=N\C#N)Nc1ccncc1)C(C)(C)C (stereo not drawn) [PINACIDIL ANHYDROUS]	> 30 µM	> 30 µM	> 30 µM	> 10 µM	> 30 µM	> 30 µM	–	–	–	–	–	–
CC(C(=O)O)c1ccc(N2CC=CC2)c(Cl)c1 (stereo not drawn) [PIRPROFEN]	> 30 µM	> 30 µM	> 30 µM	> 30 µM	> 30 µM	> 30 µM	> 30 µM	> 10 µM	> 10 µM	> 10 µM	> 10 µM	> 10 µM
CN(C)C(=O)Oc1ccc[n+](C)c1 [PYRIDOSTIGMINE]	> 30 µM	> 30 µM	> 30 µM	> 30 µM	> 30 µM	> 30 µM	–	–	–	–	–	–
O=C(NC[C@H]1CN(c2ccc(N3CCOCC3=O)cc2)C(=O)O1)c1ccc(Cl)s1 [RIVAROXABAN]	> 30 µM	> 30 µM	> 3 µM	> 30 µM	> 30 µM	–	–	–	–	> 30 µM	> 30 µM	> 30 µM
Cc1cc2c(cc1CC(=O)c1sccc1S(=O)(=O)Nc1onc(C)c1Cl)OCO2 [SITAXENTAN]	> 30 µM	> 30 µM	–	> 30 µM	> 30 µM	–	–	–	–	–	–	–
CC(C)OC(=O)[C@H](C)N[P@](=O)(OC[C@H]1O[C@@H](n2ccc(=O)[nH]c2=O)[C@](C)(F)[C@@H]1O)Oc1ccccc1 [SOFOSBUVIR]	> 30 µM	> 30 µM	> 30 µM	> 30 µM	> 30 µM	> 30 µM	–	–	–	–	–	–
Cc1ccc(O)c2ncccc12 [TILIQUINOL]	> 30 µM	> 30 µM	> 30 µM	> 30 µM	> 30 µM	> 30 µM	–	–	–	–	–	–
CC(=O)OC[C@H]1O[C@@H](n2ccc(=O)[nH]c2=O)[C@H](OC(C)=O)[C@@H]1OC(C)=O [URIDINE TRIACETATE]	> 30 µM	> 30 µM	> 30 µM	> 30 µM	> 30 µM	> 30 µM	–	–	–	–	–	–
CCOC(=O)N[C@@H]1CC[C@@H]2[C@@H](C1)C[C@H]1C(=O)O[C@H](C)[C@H]1[C@H]2/C=C/c1ccc(-c2cccc(F)c2)cn1 [VORAPAXAR]	> 30 µM	> 30 µM	> 30 µM	> 10 µM	> 10 µM	2.43 µM	–	–	–	–	–	–
